Assay [1] in a line: DPPH radical scavenging (antioxidant) assay. Particulars: compounds from red maple stems. As for the experimental part:
The DPPH radical scavenging activity of ascorbic acid (vitamin C) and the synthetic commercial antioxidant, butylated hydroxytoluene (BHT), are also assayed as positive controls.
The DPPH radical scavenging activity of ascorbic acid (vitamin C) and the synthetic commercial antioxidant, butylated hydroxytoluene (BHT), are also assayed as positive controls. […] Absorbance is read after 30 min at 515 nm, and the scavenging capacity (SC) is calculated as SC %=(A0−A1/A0)×100, where A0 is the absorbance of the reagent blank and A1 is the absorbance of test samples. All tests are performed in triplicate.
(In general: DPPH is a stable violet radical that fades when it is reduced.)

In assay [2] the test system is HCT-116 cells. The assay can be described thus: MTS antiproliferative assay, HCT-116. In kind it is cell-based. The following applies: Homo sapiens. As for the experimental part:
(§1) The extracts are solubilized in DMSO and normalized based on their phenolic content to evaluate their antiproliferative activities against the colon cell lines. […] Caco-2 cells are grown in EMEM medium supplemented with 10% v/v fetal bovine serum, 1% v/v nonessential amino acids, 1% v/v L-glutamine and 1% v/v antibiotic solution (Sigma). HT-29 and HCT-116 cells are grown in McCoy's 5a medium supplemented with 10% v/v fetal bovine serum, 1% v/v nonessential amino acids, 2% v/v HEPES and 1% v/v antibiotic solution. CCD-18Co cells are grown in EMEM medium supplemented with 10% v/v fetal bovine serum, 1% v/v nonessential amino acids, 1% v/v L-glutamine and 1% v/v antibiotic solution and are used from PDL between 26 to 35 for all experiments. […] The pH of the culture medium is determined using pH indicator paper (pHydrion™ Brilliant, pH 5.5-9.0, Micro Essential Laboratory, NY, USA) inside the incubator. Cells are counted using a hemacytometer and are plated at 3,000-5,000 cells per well, in a 96-well format for 24 or 48 h prior to sample treatment depending on the cell line. […] Control cells are also run in parallel and subjected to the same changes in medium with 0.5% DMSO.
(§2) At the end of 48 or 72 h of treatment with serially diluted test samples, 20 μl of the MTS reagent, in combination with the electron coupling agent, phenazine methosulfate, is added to the wells and cells are incubated at 37° C. in a humidified incubator for 3 h. Absorbance at 490 nm (OD490) is monitored with a spectrophotometer (SpectraMax M2, Molecular Devices Corp., operated by SoftmaxPro v.4.6 software, Sunnyvale, Calif., USA), to obtain the number of cells relative to control populations. 20 μl of etoposide 4 mg/ml (Sigma) is assayed as a negative control of proliferation. […] Data are presented as the mean±S.D. of three separated experiments on each cell line.
A general note: Tetrazolium dyes change colour on reduction, which living cells bring about.

Assay [3] concerns HT-29 cells. Nature of the assay: MTS antiproliferative assay, HT-29. It is filed as cell-based. The following applies: Homo sapiens. As for the experimental part: as §1, §2
The test system of assay [4] is Caco-2 cells. The assay can be described thus: MTS antiproliferative assay, Caco-2. Particulars: Homo sapiens. In kind it is cell-based. The method, then:
The extracts are solubilized in DMSO and normalized based on their phenolic content to evaluate their antiproliferative activities against the colon cell lines. […] CCD-18Co cells are grown in EMEM medium supplemented with 10% v/v fetal bovine serum, 1% v/v nonessential amino acids, 1% v/v L-glutamine and 1% v/v antibiotic solution and are used from PDL between 26 to 35 for all experiments. […] The pH of the culture medium is determined using pH indicator paper (pHydrion™ Brilliant, pH 5.5-9.0, Micro Essential Laboratory, NY, USA) inside the incubator. […] Control cells are also run in parallel and subjected to the same changes in medium with 0.5% DMSO. […] At the end of 48 or 72 h of treatment with serially diluted test samples, 20 μl of the MTS reagent, in combination with the electron coupling agent, phenazine methosulfate, is added to the wells and cells are incubated at 37° C. in a humidified incubator for 3 h. […] Data are presented as the mean±S.D. of three separated experiments on each cell line.

Assay [5] deals with CCD-18Co cells. The assay can be described thus: MTS antiproliferative assay, normal colon CCD-18Co. It is filed as cell-based. Particulars: Homo sapiens. As for the experimental part: as §1, §2
Assay [6] has as its target α-glucosidase (Saccharomyces cerevisiae, UniProt P53341). Nature of the assay: α-Glucosidase inhibition, red maple stem compounds (Example 4). In kind it is biochemical. The following applies: for α-glucosidase inhibitory activity (in words): by number of galloyl groups.
Setting [7] is: HCT-116, read-out: IC50 HCT-116 48 h, ginnalins, 48 h treatment.
Setting [8] is: HCT-116, ginnalins, 72 h treatment, read-out: IC50 HCT-116 72 h.
The mark [9] stands for this setting: HT-29, read-out: IC50 HT-29 48 h, ginnalins, 48 h treatment.
[10] abbreviates: HT-29, ginnalins, 72 h treatment, read-out: IC50 HT-29 72 h.
The mark [11] stands for this setting: Caco-2, read-out: IC50 Caco-2 48 h, ginnalins, 48 h treatment.
The mark [12] stands for this setting: Caco-2, ginnalins, 72 h treatment, read-out: IC50 Caco-2 72 h.
Where [13] appears, read: ginnalins, 72 h treatment, normal colon cells, read-out: IC50 CCD-18Co 72 h.

Where two headings read alike, the source gives them in different places.

α-glucosidase, sequence (P53341 whole entry): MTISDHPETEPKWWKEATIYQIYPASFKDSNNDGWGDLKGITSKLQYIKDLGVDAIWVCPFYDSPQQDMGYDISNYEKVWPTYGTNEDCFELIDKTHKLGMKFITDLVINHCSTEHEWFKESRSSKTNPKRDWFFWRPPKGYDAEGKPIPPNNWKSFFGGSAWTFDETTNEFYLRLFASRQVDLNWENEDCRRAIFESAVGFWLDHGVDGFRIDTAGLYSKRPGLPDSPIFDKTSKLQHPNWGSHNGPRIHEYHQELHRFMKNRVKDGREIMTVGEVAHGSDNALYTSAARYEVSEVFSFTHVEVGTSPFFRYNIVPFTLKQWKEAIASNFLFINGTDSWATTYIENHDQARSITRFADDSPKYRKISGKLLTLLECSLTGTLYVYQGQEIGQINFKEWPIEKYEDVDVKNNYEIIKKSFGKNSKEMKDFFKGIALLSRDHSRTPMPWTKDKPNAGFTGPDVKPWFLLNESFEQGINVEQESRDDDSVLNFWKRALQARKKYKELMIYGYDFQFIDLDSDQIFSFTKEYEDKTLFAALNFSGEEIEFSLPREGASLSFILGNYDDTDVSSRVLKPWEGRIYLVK

As for `Cc1cc(C(C)(C)C)c(O)c(C(C)(C)C)c1` [BHT, butylated hydroxytoluene, reference compound], in assay [1], the IC50 was found to be 1634 ± 16.1 µM.
For `COc1cc([C@@H]2c3cc4c(cc3[C@@H](O[C@@H]3O[C@@H]5CO[C@@H](C)O[C@H]5[C@H](O)[C@H]3O)[C@H]3COC(=O)[C@H]23)OCO4)cc(OC)c1O` [Etoposide, reference compound], the IC50 was 10 to 20 µM in assay [2] (HCT-116, MTS assay control, read-out: IC50 HCT116 (control of proliferation)); 10 to 20 µM in assay [3] (HT-29, MTS assay control, read-out: IC50 HT29 (control of proliferation)); 10 to 20 µM in assay [4] (Caco-2, MTS assay control, read-out: IC50 Caco-2 (control of proliferation)); 30 to 40 µM in assay [5] (MTS assay control, read-out: IC50 CCD-18Co (control of proliferation)).
For `O=C(O[C@H]1[C@H](O)[C@@H](CO)OC[C@@H]1O)c1cc(O)c(O)c(O)c1` [RMS 4, 3-O-galloyl-1,5-anhydro-D-glucitol], the IC50 in assay [1] amounted to 48 ± 1.11 µM. For the same molecule, the “α-glucosidase inhibitory activity (in words)” value in assay [6] is recorded as “do not show any activity”.
`O=C(O[C@H]1[C@H](O)[C@@H](O)CO[C@@H]1CO)c1cc(O)c(O)c(O)c1` [RMS 5, 4-O-galloyl-1,5-anhydro-D-glucitol] yielded an IC50 in assay [1] of 45.6 ± 1.45 µM. Moreover, the “α-glucosidase inhibitory activity (in words)” value in assay [6] is “do not show any activity”.
Consider `O=C(O[C@H]1[C@H](O)[C@@H](OC(=O)c2cc(O)c(O)c(O)c2)CO[C@@H]1CO)c1cc(O)c(O)c(O)c1` [RMS 7, 2,4-di-O-galloyl-1,5-anhydro-D-glucitol], for which the IC50 in assay [1] came out at 18.6 ± 0.77 µM. Besides, in assay [6], the “inhibitors of α-glucosidase enzyme, concentration dependence” value (from here on “inhibitors of α-glucosidase enzyme”) is reported as “inhibitors of α-glucosidase enzyme in a concentration-dependent manner” and the “α-glucosidase inhibitory activity (in words)” value was “moderate α-glucosidase inhibitory activity”.
The corresponding values for `O=C(O[C@H]1[C@H](O)[C@@H](CO)OC[C@@H]1OC(=O)c1cc(O)c(O)c(O)c1)c1cc(O)c(O)c(O)c1` [RMS 9, 2,3-di-O-galloyl-1,5-anhydro-D-glucitol] are 18.8 ± 0.77 µM, “inhibitors of α-glucosidase enzyme in a concentration-dependent manner” and “moderate α-glucosidase inhibitory activity”.
As for `O=C(OC[C@H]1OC[C@H](O)[C@@H](O)[C@@H]1O)c1cc(O)c(O)c(O)c1` [RMS 12, 6-O-galloyl-1,5-anhydro-D-glucitol], the IC50 in assay [1] was 32.7 ± 0.48 µM; in assay [2] (setting [7]), 25.1 ± 1.8 µg/mL; in assay [2] (setting [8]), 20 ± 2 µg/mL; in assay [3] (setting [9]), 36.2 ± 1.5 µg/mL; in assay [3] (setting [10]), 27.3 ± 0.6 µg/mL; in assay [4] (setting [11]), 31.1 ± 1.9 µg/mL. The IC50 came to 22.6 ± 1.9 µg/mL in assay [4] (setting [12]) and 47.1 ± 5.3 µg/mL in assay [5] (setting [13]). In addition, the “α-glucosidase inhibitory activity (in words)” value in assay [6] was “do not show any activity”.
In assay [1], `O=C(O)c1cc(O)c(O)c(O)c1` [RMS 14, gallic acid] had an IC50 of 20.4 ± 0.34 µM.
Regarding `COC(=O)c1cc(OC)c(O)c(OC)c1` [RMS 15, Methyl 3,5-dimethoxy-4-hydroxybenzoate], the IC50 in assay [1] was determined as 991 ± 80.6 µM.
With `COC(=O)c1cc(O)c(O)c(O)c1` [RMS 17, Methyl gallate], the IC50 in assay [1] worked out at 16.5 ± 0.26 µM. Moreover, in assay [6], the “inhibitors of α-glucosidase enzyme” value is “inhibitors of α-glucosidase enzyme in a concentration-dependent manner”.
As for `O=C(OC[C@H]1OC[C@H](O)[C@@H](OC(=O)c2cc(O)c(O)c(O)c2)[C@@H]1O)c1cc(O)c(O)c(O)c1` [RMS 18, 3,6-di-O-galloyl-1,5-anhydro-D-glucitol], the IC50 in assay [1] was 18.5 ± 0.44 µM. For the same molecule, in assay [6], the “inhibitors of α-glucosidase enzyme” value is listed as “inhibitors of α-glucosidase enzyme in a concentration-dependent manner” and the “α-glucosidase inhibitory activity (in words)” value was “moderate α-glucosidase inhibitory activity”.
Turning to `O=C(OC[C@H]1OC[C@H](OC(=O)c2cc(O)c(O)c(O)c2)[C@@H](O)[C@@H]1OC(=O)c1cc(O)c(O)c(O)c1)c1cc(O)c(O)c(O)c1` [RMS 24, 2,4,6-tri-O-galloyl-1,5-anhydro-D-glucitol], the IC50 in assay [1] was determined as 13.1 µM. In assay [6], the “inhibitors of α-glucosidase enzyme” value was “inhibitors of α-glucosidase enzyme in a concentration-dependent manner” and the “α-glucosidase inhibitory activity (in words)” value was “powerful α-glucosidase inhibitory activity”.
In the case of `O=C(OC[C@H]1OC[C@H](OC(=O)c2cc(O)c(O)c(O)c2)[C@@H](O)[C@@H]1O)c1cc(O)c(O)c(O)c1` [RMS 26, 2,6-di-O-galloyl-1,5-anhydro-D-glucitol], the IC50 in assay [1] worked out at 17.7 ± 0.21 µM; in assay [2] (setting [7]), 21.5 ± 1.6 µg/mL; in assay [2] (setting [8]), 16.3 ± 2.1 µg/mL; in assay [3] (setting [9]), 31 ± 2.6 µg/mL; in assay [3] (setting [10]), 24.1 ± 1.3 µg/mL; in assay [4] (setting [11]), 28.8 ± 1.8 µg/mL. The values for the IC50 in assay [4] (setting [12]) and in assay [5] (setting [13]) were 21.7 ± 1 µg/mL and 46.6 ± 3.6 µg/mL, respectively. For the same molecule, the “inhibitors of α-glucosidase enzyme” value in assay [6] is on record as “inhibitors of α-glucosidase enzyme in a concentration-dependent manner”. Further, the “α-glucosidase inhibitory activity (in words)” value in assay [6] is reported as “moderate α-glucosidase inhibitory activity”.
For the molecule `O=C(O[C@H]1CO[C@H](CO)[C@@H](O)[C@@H]1O)c1cc(O)c(O)c(O)c1` [RMS 27, 2-O-galloyl-1,5-anhydro-D-glucitol], the IC50 in assay [1] is 30.5 ± 0.8 µM; in assay [2] (setting [7]) it was 27 ± 1.9 µg/mL; in assay [2] (setting [8]), 22.3 ± 2.4 µg/mL; in assay [3] (setting [9]), 33.8 ± 2 µg/mL; in assay [3] (setting [10]), 30.1 ± 1.3 µg/mL; in assay [4] (setting [11]), 35 ± 1.4 µg/mL. The IC50 in assay [4] (setting [12]) is 29.8 ± 1.2 µg/mL. Also, in assay [6], the “α-glucosidase inhibitory activity (in words)” value was “do not show any activity”.
Molecule `COC(=O)c1cc(O)c(O)c(OC)c1` [RMS 28, 3,4-dihydroxy-5-methoxybenzoic acid methyl ester] returned an IC50 in assay [1] of 116 ± 4.98 µM.
On to `O=C1O[C@H]([C@@H](O)CO)C(O)=C1O` [Vitamin C, ascorbic acid, reference compound], for which, in assay [1], the IC50 was 71 ± 1.61 µM.

The values above are taken from US20130310332A1, “MAPLE TREE-DERIVED PRODUCTS AND USES THEREOF” (UNIVERSITY OF RHODE ISLAND, priority 2010, published 2013).
